# Source: US8003759B2, “Protein kinase-inducible domains” (University of Delaware, priority 2006, dated 2011)
# “Also recorded” adds a separate entry of the source. Like-named read-outs stand apart in the source and are kept apart here.
# What was measured:
# [1] = Tb^3+ binding of pKID peptides by fluorescence titration (dissociation constant determination); conditions: for Kd: 5 mM HEPES (pH 7.8), 100 mM NaCl, read-out: Kd of peptide-Tb^3+ complex
# Experimental: Fluorescence spectra were collected on a Photon Technology International fluorescence spectrometer model QM-3/2003 with a CW source and a Hamamatsu R928PMT. All experiments were conducted with an excitation wavelength of 280 nm. 6 nm excitation and emission slit widths were used unless otherwise indicated. All spectra were acquired at room temperature, collecting data every 1 nm with a scan rate of 1 nm per second. At least 3 independent binding titrations were conducted for each peptide. All spectra are uncorrected and have not been normalized, and only representative (median), non-averaged spectra are shown, unless otherwise indicated. All fluorescence experiments were conducted using a 495 nm highpass filter (model 495FG03-25 AM-53074; Andover Corporation, Andover, N.H.) on the emission monochromator.
# Peptide solutions were prepared by dilution of stock solutions into 5 mM HEPES buffer (pH 7.8) with 100 mM NaCl. Spectra were acquired in 10 mm quartz fluorescence cells (Sterna). Tb^3+ titrations were conducted by dilution of a Tb^3+ solution into a peptide solution as described above. Each individual emission spectrum represents an independently prepared solution of peptide and metal. The Tb^3+ emission band at 544 nm was used to evaluate metal binding.
# To determine dissociation constants for Tb^3+-peptide complexes, titrations were conducted in solutions of 5 mM HEPES (pH 7.8) and 100 mM NaCl, with 10 nm emission and excitation slit widths. All fluorescence experiments were conducted using a 495 nm highpass filter (model 495FG03-25 AM-53074; Andover Corporation, Andover, N.H.) on the emission monochromator. All TbCl3 solutions were standardized by titration with a standard solution of EDTA (1 mM) in the presence of xylenol orange indicator (10 μM) and sodium acetate buffer (pH 6.0, 10 mM). 500 μL of the 1 mM Tb^3+ stock solution was diluted to 1 mL to make a 0.5 mM solution and EDTA (1 mM) was added (approximately 500 μL) until the end point was reached (see FIGS. 11-13). The solutions were prepared as serial dilutions of Tb^3+, from 3.3 μM to 450 μM Tb^3+, and the fluorescence emission scan of each solution was acquired. Data points at the emission maximum of 544 nm were plotted against Tb^3+ concentration to calculate the final Kd. Data points indicate the average of at least three independent titrations. Error bars indicate standard error. The data were fit to equation (1) using a non-linear least squares fitting algorithm (KaleidaGraph version 3.6, Synergy Software), where Q fluorescence, Qo=fluorescence of the apopeptide, Qc=fluorescence of peptide-metal complex, Mt=total metal concentration, Kd=dissociation constant and Pt=total peptide concentration (10 μM). Dissociation constants in the presence of 2 mM Mg^2+ or 100 μM Ca^2+ were measured for pKID-PKA peptides to study the effect of these metals on Tb^3+-peptide complex formation.
# Dissociation constants of the non-phosphorylated peptides were calculated by defining the maximum fluorescence of the non-phosphorylated peptide-Tb^3+ complex as equal to the maximum fluorescence of the phosphorylated peptide-Tb^3+ complex: Qc (non-phosphorylated peptide)=Qc (phosphorylated peptide), with Qc=the calculated fluorescence of the fully bonded phosphopeptide-Tb^3+ complex. Although the assumption of similar maximum fluorescence intensities of the Tb^3+ complexes of the non-phosphorylated and phosphorylated peptides may not be valid, it provides a measure of relative Tb^3+ fluorescence of the phosphorylated and non-phosphorylated peptides.
# Protein Kinase A (PKA) [2] = target: T1, Protein Kinase A (PKA) (Mus musculus, UniProt P05132); assay: Phosphorylation of pKID peptides by protein kinase A (HPLC, fluorescence, ESI-MS); type: biochemical; conditions: 200 μM peptide, 2.5 units PKA, 35° C., 12 hrs
# T1 construct: purchased New England Biolabs
# Experimental: Kinase specificity for protein kinase-inducible domain peptides was examined by incubation of protein kinase A with pKID-PKA, pKID-PKC and pKID-Erk. Experiments were conducted with 2.4 mM ATP (3 μL of freshly prepared 20 mM ATP), PKA buffer (3 μL of 10× buffer), and peptide (200 μM) with water in 25 μL final reaction volume. After incubation at 35° C. for 5 min, PKA enzyme solution (1 μL, 2.5 units) was added to start the reaction. After 12-14 hrs at 35° C., the reaction mixture was analyzed by fluorescence, HPLC and ESI-MS. The kinase reaction mixtures were analyzed by fluorescence by diluting the reaction mixture with 1 mL of a solution containing 5 mM HEPES buffer (pH 7.8), 100 mM NaCl, and 50 μM Tb^3+, and the resulting solution analyzed by fluorescence. Fluorescence experiments were conducted with 10 nm slit widths and a 495 nm highpass filter on the emission monochromator. Fluorescence data (FIG. 7) represent the average of four independent trials. Error bars indicate standard error.
# [3] = Ho^3+ competition experiment (reduction of Tb^3+ luminescence); type: binding; conditions: 10 μM phosphorylated peptide, 10 μM Tb^3+, increasing Ho^3+
# Experimental: Competition experiments were used to confirm site-specific lanthanide binding and to address whether pKID peptides are a general phosphorylation-dependent lanthanide-binding motif. In order to determine whether Tb^3+ binding is site-specific, competition experiments were performed with Ho^3+. Ho^3+ solutions were prepared from hydrates of the chloride salts in ultrapure water. The phosphorylated pKID-PKC peptide was tested for Ho^3+ binding by addition of aliquots of Ho^3+ to a solution containing 10 μM phosphorylated pKID-PKC and 10 μM Tb^3+. pKID-Tb^3+-Ho^3+ solutions were allowed to equilibrate for 2 minutes. Fluorescence experiments were conducted using a 495 nm highpass filter (model 495FG03-25 AM-53074; Andover Corporation, Andover, N.H.) on the emission monochromator and 8 nm slit widths.
# Protein Kinase A (PKA) [4] = target: T1, Protein Kinase A (PKA); assay: Phosphorylation of pKID-PKA by protein kinase A in HeLa nuclear extract; type: biochemical; conditions: HeLa nuclear extract with added PKA, 3 h incubation
# [5] = system: endogenous kinase present within the HeLa extracts; assay: Phosphorylation of pKID-PKA in HeLa nuclear extract in the absence of added kinase; type: biochemical; conditions: no added kinase
# Experimental: Phosphorylation of pKID-PKA in HeLa nuclear extract in the absence of added kinase was also examined. Reaction mixtures were prepared as described previously to a final volume of 25 μL, but protein kinase A was not added. After addition of ATP and incubation for the indicated times, the reaction mixtures (25 μL, 500 μM peptide) were diluted with 200 μL of a solution containing […] buffer (pH 7.8), 100 mM NaCl and 100 μM Tb^3+ and analyzed by fluorescence as described previously. pKID-PKA was phosphorylated by endogenous kinase present within the HeLa extracts to approximately 10% conversion as determined by fluorescence and HPLC (see FIG. 5, right).
Substance,Kd ([1]; 10 μM peptide) [µM],Kd ([1]; + 2 mM Mg^2+) [µM],"phosphorylation by PKA (result in words), determined by HPLC (Protein Kinase A (PKA) [2])",also measured
Ac-DKNADGWIDAApSPA-NH2 (DKNADGWIDAASPA; HELM PEPTIDE1{[ac].D.K.N.A.D.G.W.I.D.A.A.[O=C([C@H](COP(=O)(O)O)N[*:1])[*:2]].P.A.[am]}$$$$V2.0; SMILES CC[C@H](C)[C@H](NC(=O)[C@H](Cc1c[nH]c2ccccc12)NC(=O)CNC(=O)[C@H](CC(=O)O)NC(=O)[C@H](C)NC(=O)[C@H](CC(N)=O)NC(=O)[C@H](CCCCN)NC(=O)[C@H](CC(=O)O)NC(C)=O)C(=O)N[C@@H](CC(=O)O)C(=O)N[C@@H](C)C(=O)N[C@@H](C)C(=O)N[C@@H](COP(=O)(O)O)C(=O)N1CCC[C@H]1C(=O)N[C@@H](C)C(N)=O) [phosphorylated pKID-Erk],124,–,–,–
Ac-DKNADGWIDRApSLA-NH2 (DKNADGWIDRASLA; HELM PEPTIDE1{[ac].D.K.N.A.D.G.W.I.D.R.A.[O=C([C@H](COP(=O)(O)O)N[*:1])[*:2]].L.A.[am]}$$$$V2.0; SMILES CC[C@H](C)[C@H](NC(=O)[C@H](Cc1c[nH]c2ccccc12)NC(=O)CNC(=O)[C@H](CC(=O)O)NC(=O)[C@H](C)NC(=O)[C@H](CC(N)=O)NC(=O)[C@H](CCCCN)NC(=O)[C@H](CC(=O)O)NC(C)=O)C(=O)N[C@@H](CC(=O)O)C(=O)N[C@@H](CCCNC(=N)N)C(=O)N[C@@H](C)C(=O)N[C@@H](COP(=O)(O)O)C(=O)N[C@@H](CC(C)C)C(=O)N[C@@H](C)C(N)=O) [phosphorylated pKID-PKA],220,174,–,change of dissociation constant of phosphopeptide-Tb^3+ complex in the presence of Ca^2+ ([1]; 100 μM Ca^2+): did not significantly change; Kd ([1]; + 100 μM Ca^2+): 228 µM
"DKNADGWIDAASLK [non-phosphorylated pKID-PKC, Ac-DKNADGWIDAASLK-NH2, EF hand domain with Glu12 replaced by serine and a protein kinase C recognition domain]",> 6000,–,no evidence of phosphorylation; also recorded: not phosphorylated,Ho^3+ binding observed via Tb^3+ luminescence [3]: loss of Tb^3+ luminescence
Ac-DKNADGWIDAApSLK-NH2 (DKNADGWIDAASLK; HELM PEPTIDE1{[ac].D.K.N.A.D.G.W.I.D.A.A.[O=C([C@H](COP(=O)(O)O)N[*:1])[*:2]].L.K.[am]}$$$$V2.0; SMILES CC[C@H](C)[C@H](NC(=O)[C@H](Cc1c[nH]c2ccccc12)NC(=O)CNC(=O)[C@H](CC(=O)O)NC(=O)[C@H](C)NC(=O)[C@H](CC(N)=O)NC(=O)[C@H](CCCCN)NC(=O)[C@H](CC(=O)O)NC(C)=O)C(=O)N[C@@H](CC(=O)O)C(=O)N[C@@H](C)C(=O)N[C@@H](C)C(=O)N[C@@H](COP(=O)(O)O)C(=O)N[C@@H](CC(C)C)C(=O)N[C@@H](CCCCN)C(N)=O) [phosphorylated pKID-PKC],216,–,–,–
"DKNADGWIDAASPA [non-phosphorylated pKID-Erk, Ac-DKNADGWIDAASPA-NH2, EF hand domain with Glu12 replaced by serine and an Erk recognition domain]",> 3000,–,no evidence of phosphorylation; also recorded: not phosphorylated,–
"DKNADGWIDRASLA [non-phosphorylated pKID-PKA, Ac-DKNADGWIDRASLA-NH2, EF hand domain with Glu12 replaced by serine and a protein kinase A recognition domain]",> 5000,> 5000,–,"Tb^3+ binding in the presence of Mg^2+ ([1]; 2 mM Mg^2+): not observed; conversion to phosphorylated peptide by PKA, determined by HPLC (Protein Kinase A (PKA) [2]): > 95%; phosphorylation conversion measured by HPLC (Protein Kinase A (PKA) [4]): 75%; phosphorylation conversion determined by fluorescence and HPLC [5]: approximately 10%"
